In patent publication US20200079765A1, “SUBSTITUTED HETEROARYL PYRROLONES AND SALTS THEREOF AND USE THEREOF AS HERBICIDAL ACTIVE SUBSTANCES” (Bayer CropScience Aktiengesellschaft, priority 2016, published 2020):

Columns and labels:
Assay type in all cases: in vivo
Alopecurus myosuroides [1] = assay: Pre-emergence herbicidal action (Experimental Part 1, B); settings: scored visually after about 3 weeks
Excerpt: (§1) Seeds of monocotyledonous and dicotyledonous weed plants and crop plants were placed in plastic or organic planting pots and covered with soil. The compounds of the invention, formulated in the form of wettable powders (WP) or as emulsion concentrates (EC), were then applied onto the surface of the covering soil as aqueous suspension or emulsion with addition of 0.5% additive at a water application rate of 600 l/ha (converted). After the treatment, the pots were placed in a greenhouse and kept under good growth conditions for the test plants. After about 3 weeks, the effect of the preparations was scored visually in comparison with untreated controls as percentages. For example, 100% activity=the plants have died, 0% activity=like control plants. Tables B1 to B14 below show the effects of selected compounds of the general formula (I) according to Tables I.1 to I.116 on various harmful plants and an application rate corresponding to 1280 g/ha or 320 g/ha, which were obtained by the experimental procedure mentioned above.

Matricaria inodora [2] = assay: as above; settings: scored visually after about 3 weeks
Excerpt: as §1

Amaranthus retroflexus [3] = assay: as above; settings: scored visually after about 3 weeks
Excerpt: as §1

Polygonum convolvulus [4] = assay: as above; settings: scored visually after about 3 weeks
Excerpt: as §1

Stellaria media [5] = assay: as above; settings: scored visually after about 3 weeks
Excerpt: as §1

Setaria viridis [6] = assay: as above; settings: scored visually after about 3 weeks
Excerpt: as §1

Abutilon theophrasti [7] = assay: as above; settings: scored visually after about 3 weeks
Excerpt: as §1

Avena fatua = assay: as above; settings: scored visually after about 3 weeks
Excerpt: as §1

Viola tricolor [8] = assay: as above; settings: scored visually after about 3 weeks
Excerpt: as §1

Matricaria inodora [9] = assay: Post-emergence herbicidal action (Experimental Part 1, A); settings: rated visually after about 3 weeks
Experimental: (§2) Seeds of monocotyledonous and dicotyledonous weeds and crop plants were placed in sandy loam in plastic or wood-fiber pots, covered with soil and cultivated in a greenhouse under controlled growth conditions. 2 to 3 weeks after sowing, the test plants were treated at the one-leaf stage. The compounds of the invention, formulated in the form of wettable powders (WP) or as emulsion concentrates (EC), were then sprayed onto the green parts of the plants as aqueous suspension or emulsion with addition of 0.5% additive at a water application rate of 600 l/ha (converted). After the test plants had been kept in the greenhouse under optimum growth conditions for about 3 weeks, the activity of the preparations was rated visually in comparison to untreated controls. For example, 100% activity=the plants have died, 0% activity=like control plants. Tables A1 to A14 below show the effects of selected compounds of the general formula (I) according to Tables I.1 to I.116 on various harmful plants and an application rate corresponding to 1280 g/ha or 320 g/ha, which were obtained by the experimental procedure mentioned above.

Amaranthus retroflexus [10] = assay: as above; settings: about 3 weeks after treatment, 100% = plants have died, 0% = like control plants
Experimental: as §2

Polygonum convolvulus [11] = assay: as above; settings: rated visually after about 3 weeks
Experimental: as §2

Stellaria media [12] = assay: as above; settings: rated visually after about 3 weeks
Experimental: as §2

Setaria viridis [13] = assay: as above; settings: about 3 weeks after treatment, 100% = plants have died, 0% = like control plants
Experimental: as §2

Ipomoea purpurea [14] = assay: as above; settings: rated visually after about 3 weeks
Experimental: as §2

Abutilon theophrasti [15] = assay: as above; settings: about 3 weeks after treatment, 100% = plants have died, 0% = like control plants
Experimental: as §2

Veronica persica = assay: as above; settings: about 3 weeks after treatment, 100% = plants have died, 0% = like control plants
Experimental: as §2

Viola tricolor [16] = assay: as above; settings: rated visually after about 3 weeks
Experimental: as §2

Lolium rigidum = assay: Pre-emergence herbicidal action (Experimental Part 1, B); settings: application rate 1280 g/ha, scored visually after about 3 weeks
Excerpt: as §1

Ipomoea purpurea [17] = assay: as above; settings: application rate 320 g/ha, scored visually after about 3 weeks
Excerpt: as §1

Echinochloa crus-galli [18] = assay: as above; settings: application rate 320 g/ha, scored visually after about 3 weeks
Excerpt: as §1

Alopecurus myosuroides [19] = assay: Post-emergence herbicidal action (Experimental Part 1, A); settings: application rate 320 g/ha, about 3 weeks after treatment, 100% = plants have died, 0% = like control plants
Experimental: as §2

Echinochloa crus-galli [20] = assay: as above; settings: application rate 320 g/ha, about 3 weeks after treatment, 100% = plants have died, 0% = like control plants
Experimental: as §2

CCOC(=O)OC1C=C(C)C(=O)N1c1cc(C(F)(F)F)c(Cl)cn1 (centres unmarked) [I.12-451]
Alopecurus myosuroides, herbicidal activity (Alopecurus myosuroides [1]; application rate 1280 g/ha): 90%
Matricaria inodora, herbicidal activity (Matricaria inodora [2]; application rate 1280 g/ha): 90%
Amaranthus retroflexus, herbicidal activity (Amaranthus retroflexus [3]; application rate 320 g/ha): 100%
Amaranthus retroflexus, herbicidal activity (Amaranthus retroflexus [3]; application rate 1280 g/ha): 100%
Polygonum convolvulus, herbicidal activity (Polygonum convolvulus [4]; application rate 1280 g/ha): 100%
Stellaria media, herbicidal activity (Stellaria media [5]; application rate 320 g/ha): 100%
Stellaria media, herbicidal activity (Stellaria media [5]; application rate 1280 g/ha): 100%
Setaria viridis, herbicidal activity (Setaria viridis [6]; application rate 320 g/ha): 90%
Setaria viridis, herbicidal activity (Setaria viridis [6]; application rate 1280 g/ha): 100%
Abutilon theophrasti, herbicidal activity (Abutilon theophrasti [7]; application rate 1280 g/ha): 100%
Avena fatua, herbicidal activity (Avena fatua; application rate 1280 g/ha): 90%
Viola tricolor, herbicidal activity (Viola tricolor [8]; application rate 320 g/ha): 100%
Viola tricolor, herbicidal activity (Viola tricolor [8]; application rate 1280 g/ha): 100%
Matricaria inodora, herbicidal activity (Matricaria inodora [9]; application rate 320 g/ha): 90%
Matricaria inodora, herbicidal activity (Matricaria inodora [9]; application rate 1280 g/ha): 100%
herbicidal activity on Amaranthus retroflexus (visual rating vs untreated controls) (Amaranthus retroflexus [10]; application rate 320 g/ha): 100%
herbicidal activity on Amaranthus retroflexus (visual rating vs untreated controls) (Amaranthus retroflexus [10]; application rate 1280 g/ha): 100%
Polygonum convolvulus, herbicidal activity (Polygonum convolvulus [11]; application rate 320 g/ha): 100%
Polygonum convolvulus, herbicidal activity (Polygonum convolvulus [11]; application rate 1280 g/ha): 100%
Stellaria media, herbicidal activity (Stellaria media [12]; application rate 320 g/ha): 100%
Stellaria media, herbicidal activity (Stellaria media [12]; application rate 1280 g/ha): 100%
herbicidal activity on Setaria viridis (visual rating vs untreated controls) (Setaria viridis [13]; application rate 320 g/ha): 100%
herbicidal activity on Setaria viridis (visual rating vs untreated controls) (Setaria viridis [13]; application rate 1280 g/ha): 100%
Ipomoea purpurea, herbicidal activity (Ipomoea purpurea [14]; application rate 320 g/ha): 100%
Ipomoea purpurea, herbicidal activity (Ipomoea purpurea [14]; application rate 1280 g/ha): 100%
herbicidal activity on Abutilon theophrasti (visual rating vs untreated controls) (Abutilon theophrasti [15]; application rate 320 g/ha): 100%
herbicidal activity on Abutilon theophrasti (visual rating vs untreated controls) (Abutilon theophrasti [15]; application rate 1280 g/ha): 100%
herbicidal activity on Veronica persica (visual rating vs untreated controls) (Veronica persica; application rate 1280 g/ha): 100%
Viola tricolor, herbicidal activity (Viola tricolor [16]; application rate 320 g/ha): 100%
Viola tricolor, herbicidal activity (Viola tricolor [16]; application rate 1280 g/ha): 100%

CCOC(=O)OC1C(C)=CC(=O)N1c1cc(C(C)(C)C)on1 (centres unmarked) [I.11-162, 5-Ethoxycarbonyloxy-4-methyl-1-(5-tert-butyl-1,2-isoxazol-3-yl)-1,5-dihydro-2H-pyrrol-2-one]
Alopecurus myosuroides, herbicidal activity (Alopecurus myosuroides [1]; application rate 320 g/ha): 100%
Matricaria inodora, herbicidal activity (Matricaria inodora [2]; application rate 320 g/ha): 100%
Amaranthus retroflexus, herbicidal activity (Amaranthus retroflexus [3]; application rate 320 g/ha): 100%
Polygonum convolvulus, herbicidal activity (Polygonum convolvulus [4]; application rate 320 g/ha): 100%
Stellaria media, herbicidal activity (Stellaria media [5]; application rate 320 g/ha): 100%
Lolium rigidum, herbicidal activity (Lolium rigidum): 90%
Setaria viridis, herbicidal activity (Setaria viridis [6]; application rate 320 g/ha): 100%
Ipomoea purpurea, herbicidal activity (Ipomoea purpurea [17]): 90%
Abutilon theophrasti, herbicidal activity (Abutilon theophrasti [7]; application rate 320 g/ha): 100%
Avena fatua, herbicidal activity (Avena fatua; application rate 320 g/ha): 90%
Echinochloa crus-galli, herbicidal activity (Echinochloa crus-galli [18]): 100%
Viola tricolor, herbicidal activity (Viola tricolor [8]; application rate 320 g/ha): 100%
herbicidal activity on Alopecurus myosuroides (visual rating vs untreated controls) (Alopecurus myosuroides [19]): 100%
Matricaria inodora, herbicidal activity (Matricaria inodora [9]; application rate 320 g/ha): 100%
herbicidal activity on Amaranthus retroflexus (visual rating vs untreated controls) (Amaranthus retroflexus [10]; application rate 320 g/ha): 100%
Polygonum convolvulus, herbicidal activity (Polygonum convolvulus [11]; application rate 320 g/ha): 100%
Stellaria media, herbicidal activity (Stellaria media [12]; application rate 320 g/ha): 100%
herbicidal activity on Setaria viridis (visual rating vs untreated controls) (Setaria viridis [13]; application rate 320 g/ha): 100%
Ipomoea purpurea, herbicidal activity (Ipomoea purpurea [14]; application rate 320 g/ha): 90%
herbicidal activity on Abutilon theophrasti (visual rating vs untreated controls) (Abutilon theophrasti [15]; application rate 320 g/ha): 100%
herbicidal activity on Veronica persica (visual rating vs untreated controls) (Veronica persica; application rate 320 g/ha): 100%
herbicidal activity on Echinochloa crus-galli (visual rating vs untreated controls) (Echinochloa crus-galli [20]): 90%
Viola tricolor, herbicidal activity (Viola tricolor [16]; application rate 320 g/ha): 100%
